Measured values from PubChem BioAssay AID2060490 (Molecular Pharmacology Branch, DTP, NCI, 2025).

Tested on: 885512-296-R-J2-PDC complex spheroid viability
Assay: Anticancer human tumor 885512-296-R-J2-PDC patient-derived breast carcinoma cell line growth inhibition [GQUAD]
Settings: for IC50: curve of first compound; for viability, T/C: stronger effect = lower value
Method in brief: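 Tumor cells were grown as complex spheroids with HUVEC endothelial cells and mesenchymal stem cells as stroma. G-quadruplex stabilizers were combined with targeted agents over half-log dilutions from near the clinical Cmax, or from 10 microM.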
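Further: spheroids exposed to the compounds for one week.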
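Wherever viability, T/C is given: percent of tumor spheroid viability relative to DMSO vehicle control wells.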

In the case of `CC(=O)O[C@H]1C(=O)[C@@]2(C)[C@H]([C@H](OC(=O)c3ccccc3)[C@]3(O)C[C@H](OC(=O)[C@H](O)[C@@H](NC(=O)c4ccccc4)c4ccccc4)C(C)=C1C3(C)C)[C@]1(OC(C)=O)CO[C@@H]1C[C@@H]2O` + Cc1cnc(CNC(=O)c2c(=O)c3ccc(N4CCCN(C)CC4)nc3n3c2sc2ccccc23)cn1, the IC50 (second compound 0.0316 µM) is reported as less than 0.0316 µM, the IC50 (second compound 0.1 µM) is reported as less than 0.0316 µM and the IC50 (second compound 0.316 µM) is reported as less than 0.0316 µM. The IC50 (second compound 1 µM) was less than 0.0316 µM, the IC50 (second compound 3.16 µM) was less than 0.0316 µM and the IC50 (second compound 10 µM) was less than 0.0316 µM. For the same compound, the viability, T/C (second compound 0.0316 µM, first compound 0.0316 µM) was 11.1%, the viability, T/C (second compound 0.0316 µM, first compound 0.1 µM) was 3.65% and the viability, T/C (second compound 0.0316 µM, first compound 0.316 µM) was 3.53%. It also gave a viability, T/C (second compound 0.0316 µM, first compound 1 µM) of 4.58%, a viability, T/C (second compound 0.0316 µM, first compound 3.16 µM) of 3.52% and a viability, T/C (second compound 0.0316 µM, first compound 10 µM) of 3.97%. The viability, T/C (second compound 0.1 µM, first compound 0.0316 µM) was 7.92%, the viability, T/C (second compound 0.1 µM, first compound 0.1 µM) was 4.41% and the viability, T/C (second compound 0.1 µM, first compound 0.316 µM) was 6.02%. The viability, T/C (second compound 0.1 µM, first compound 1 µM) was 4.78%, the viability, T/C (second compound 0.1 µM, first compound 3.16 µM) was 4.71% and the viability, T/C (second compound 0.1 µM, first compound 10 µM) was 4.43%. It also gave a viability, T/C (second compound 0.316 µM, first compound 0.0316 µM) of 7.35%, a viability, T/C (second compound 0.316 µM, first compound 0.1 µM) of 6.45% and a viability, T/C (second compound 0.316 µM, first compound 0.316 µM) of 5.89%. It also gave a viability, T/C (second compound 0.316 µM, first compound 1 µM) of 7.32%, a viability, T/C (second compound 0.316 µM, first compound 3.16 µM) of 6.29% and a viability, T/C (second compound 0.316 µM, first compound 10 µM) of 6.52%. It also gave a viability, T/C (second compound 1 µM, first compound 0.0316 µM) of 7.81%, a viability, T/C (second compound 1 µM, first compound 0.1 µM) of 6.34% and a viability, T/C (second compound 1 µM, first compound 0.316 µM) of 5.06%. The viability, T/C (second compound 1 µM, first compound 1 µM) was 7.14%, the viability, T/C (second compound 1 µM, first compound 3.16 µM) was 6.19% and the viability, T/C (second compound 1 µM, first compound 10 µM) was 7.74%. The viability, T/C (second compound 3.16 µM, first compound 0.0316 µM) was 12.7%, the viability, T/C (second compound 3.16 µM, first compound 0.1 µM) was 0.54% and the viability, T/C (second compound 3.16 µM, first compound 0.316 µM) was 0.25%. It also gave a viability, T/C (second compound 3.16 µM, first compound 1 µM) of 0.47%, a viability, T/C (second compound 3.16 µM, first compound 3.16 µM) of 0.25% and a viability, T/C (second compound 3.16 µM, first compound 10 µM) of 0.18%. It also gave a viability, T/C (second compound 10 µM, first compound 0.0316 µM) of 0.12%, a viability, T/C (second compound 10 µM, first compound 0.1 µM) of 0.14% and a viability, T/C (second compound 10 µM, first compound 0.316 µM) of 0.14%. The viability, T/C (second compound 10 µM, first compound 1 µM) was 0.12%, the viability, T/C (second compound 10 µM, first compound 3.16 µM) was 0.15% and the viability, T/C (second compound 10 µM, first compound 10 µM) was 0.16%.
